Measurements reported in PubChem BioAssay AID1963871 (Molecular Pharmacology Branch, DTP, NCI, 2024).

Tested on: KRAS-mutant PDC multicell tumor spheroid viability
Assay: Anticancer human tumor 521955-158-R2-J5-PDC patient-derived pancreatic carcinoma cell line growth inhibition [KRAS2]
Conditions: for IC50: curve of first compound; for viability, T/C: stronger effect = lower value; active = viability on the fitted dose curve at most 10% of control; inactive = the rest
In short: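 Combination screen of spheroid viability in tumor-cell co-cultures with endothelial (HUVEC) and mesenchymal stem cell stroma. Each agent was tested in half-log dilutions, topping at clinical Cmax or at 10 microM without a known Cmax.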

[1] = second compound 0.1 µM, first compound 0.000316 µM
[2] = second compound 0.1 µM, first compound 0.001 µM
[3] = second compound 0.1 µM, first compound 0.00316 µM
[4] = second compound 0.1 µM, first compound 0.01 µM
[5] = second compound 0.1 µM, first compound 0.0316 µM
[6] = second compound 0.316 µM, first compound 0.000316 µM
[7] = second compound 0.316 µM, first compound 0.001 µM
[8] = second compound 0.316 µM, first compound 0.00316 µM
[9] = second compound 0.316 µM, first compound 0.01 µM
[10] = second compound 0.316 µM, first compound 0.0316 µM
[11] = second compound 1 µM, first compound 0.000316 µM
[12] = second compound 1 µM, first compound 0.001 µM
[13] = second compound 1 µM, first compound 0.00316 µM
[14] = second compound 1 µM, first compound 0.01 µM
[15] = second compound 1 µM, first compound 0.0316 µM
[16] = second compound 3.16 µM, first compound 0.000316 µM
[17] = second compound 3.16 µM, first compound 0.001 µM
[18] = second compound 3.16 µM, first compound 0.00316 µM
[19] = second compound 3.16 µM, first compound 0.01 µM
[20] = second compound 3.16 µM, first compound 0.0316 µM
[21] = second compound 10 µM, first compound 0.000316 µM
[22] = second compound 10 µM, first compound 0.001 µM
[23] = second compound 10 µM, first compound 0.00316 µM
[24] = second compound 10 µM, first compound 0.01 µM
[25] = second compound 10 µM, first compound 0.0316 µM
[26] = second compound 0.1 µM, first compound 0.1 µM
[27] = second compound 0.316 µM, first compound 0.1 µM
[28] = second compound 1 µM, first compound 0.1 µM
[29] = second compound 3.16 µM, first compound 0.1 µM
[30] = second compound 10 µM, first compound 0.1 µM
[31] = second compound 0.1 µM, first compound 0.316 µM
[32] = second compound 0.1 µM, first compound 1 µM
[33] = second compound 0.1 µM, first compound 3.16 µM
[34] = second compound 0.1 µM, first compound 10 µM
[35] = second compound 0.316 µM, first compound 0.316 µM
[36] = second compound 0.316 µM, first compound 1 µM
[37] = second compound 0.316 µM, first compound 3.16 µM
[38] = second compound 0.316 µM, first compound 10 µM
[39] = second compound 1 µM, first compound 0.316 µM
[40] = second compound 1 µM, first compound 1 µM
[41] = second compound 1 µM, first compound 3.16 µM
[42] = second compound 1 µM, first compound 10 µM
[43] = second compound 3.16 µM, first compound 0.316 µM
[44] = second compound 3.16 µM, first compound 1 µM
[45] = second compound 3.16 µM, first compound 3.16 µM
[46] = second compound 3.16 µM, first compound 10 µM
[47] = second compound 10 µM, first compound 0.316 µM
[48] = second compound 10 µM, first compound 1 µM
[49] = second compound 10 µM, first compound 3.16 µM
[50] = second compound 10 µM, first compound 10 µM
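Also: viability read after seven days of drug exposure.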

CC(=O)Nc1cccc(-n2c(=O)n(C3CC3)c(=O)c3c(Nc4ccc(I)cc4F)n(C)c(=O)c(C)c32)c1 + CC1OCC2(CCN(c3cnc(Sc4ccnc(N)c4Cl)c(N)n3)CC2)C1N
active: viability, T/C [15] 9.6%
0.146 nM: IC50 (second compound 0.1 µM)
inactive: viability, T/C (second compound 0.1 µM, first compound 0.0001 µM) 59% | viability, T/C [1] 29.4% | viability, T/C [2] 29.3% | viability, T/C [3] 25.3% | viability, T/C [4] 21.4% | viability, T/C [5] 13.1% | viability, T/C (second compound 0.316 µM, first compound 0.0001 µM) 44.9% | viability, T/C [6] 32.9% | viability, T/C [7] 25.4% | viability, T/C [8] 22.7% | viability, T/C [9] 18.1% | viability, T/C [10] 12.4% | viability, T/C (second compound 1 µM, first compound 0.0001 µM) 40.3% | viability, T/C [11] 35.8% | viability, T/C [12] 26.9% | viability, T/C [13] 24.2% | viability, T/C [14] 16.8% | viability, T/C (second compound 3.16 µM, first compound 0.0001 µM) 40.9% | viability, T/C [16] 32.5% | viability, T/C [17] 25.2% | viability, T/C [18] 21.1% | viability, T/C [19] 15.3% | viability, T/C [20] 12.7% | viability, T/C (second compound 10 µM, first compound 0.0001 µM) 39.9% | viability, T/C [21] 34% | viability, T/C [22] 23.3% | viability, T/C [23] 18.5% | viability, T/C [24] 15.1% | viability, T/C [25] 11.6%
< 0.1 nM: IC50 (second compound 0.316 µM) | IC50 (second compound 1 µM) | IC50 (second compound 3.16 µM) | IC50 (second compound 10 µM)

CC(C)n1nc(-c2ccc3oc(N)nc3c2)c2c(N)ncnc21 + CC1OCC2(CCN(c3cnc(Sc4ccnc(N)c4Cl)c(N)n3)CC2)C1N
< 0.316 nM: IC50 (second compound 3.16 µM) | IC50 (second compound 10 µM)
inactive: viability, T/C [1] 71.5% | viability, T/C [2] 71.4% | viability, T/C [3] 56.5% | viability, T/C [4] 44.2% | viability, T/C [5] 32.8% | viability, T/C [26] 24.6% | viability, T/C [6] 59.1% | viability, T/C [7] 57.7% | viability, T/C [8] 51.2% | viability, T/C [9] 39.5% | viability, T/C [10] 31.2% | viability, T/C [27] 25.2% | viability, T/C [11] 48.9% | viability, T/C [12] 50.8% | viability, T/C [13] 45% | viability, T/C [14] 36.9% | viability, T/C [15] 28.1% | viability, T/C [28] 21.6% | viability, T/C [16] 47.5% | viability, T/C [17] 50.8% | viability, T/C [18] 37.8% | viability, T/C [19] 29.4% | viability, T/C [20] 23.4% | viability, T/C [29] 19.3% | viability, T/C [21] 47.7% | viability, T/C [22] 50.1% | viability, T/C [23] 41.2% | viability, T/C [24] 28.4% | viability, T/C [25] 24.6% | viability, T/C [30] 19.6%
0.359 nM: IC50 (second compound 1 µM)
3.52 nM: IC50 (second compound 0.316 µM)
6.21 nM: IC50 (second compound 0.1 µM)

COc1cc(Nc2ncc3c(n2)-c2ccc(Cl)cc2C(c2c(F)cccc2OC)=NC3)ccc1C(=O)O + CC1OCC2(CCN(c3cnc(Sc4ccnc(N)c4Cl)c(N)n3)CC2)C1N
< 31.6 nM: IC50 (second compound 0.1 µM) | IC50 (second compound 0.316 µM) | IC50 (second compound 1 µM) | IC50 (second compound 3.16 µM) | IC50 (second compound 10 µM)
inactive: viability, T/C [5] 44.6% | viability, T/C [26] 45.2% | viability, T/C [31] 39.7% | viability, T/C [32] 38.8% | viability, T/C [33] 37.2% | viability, T/C [34] 37.4% | viability, T/C [10] 41% | viability, T/C [27] 39.3% | viability, T/C [35] 45.5% | viability, T/C [36] 34.4% | viability, T/C [37] 36.4% | viability, T/C [38] 35.8% | viability, T/C [15] 39.5% | viability, T/C [28] 35.1% | viability, T/C [39] 38.1% | viability, T/C [40] 36% | viability, T/C [41] 34.5% | viability, T/C [42] 30.5% | viability, T/C [20] 38.4% | viability, T/C [29] 31.1% | viability, T/C [43] 30.8% | viability, T/C [44] 30% | viability, T/C [45] 28.2% | viability, T/C [46] 33.6% | viability, T/C [25] 37.8% | viability, T/C [30] 37.7% | viability, T/C [47] 36% | viability, T/C [48] 37.1% | viability, T/C [49] 27.1% | viability, T/C [50] 31.1%

COc1cc2nccc(Oc3ccc(NC(=O)C4(C(=O)Nc5ccc(F)cc5)CC4)cc3)c2cc1OC + CC1OCC2(CCN(c3cnc(Sc4ccnc(N)c4Cl)c(N)n3)CC2)C1N
4800 nM: IC50 (second compound 1 µM)
< 31.6 nM: IC50 (second compound 3.16 µM)
1090 nM: IC50 (second compound 10 µM)
inactive: viability, T/C [5] 75.7% | viability, T/C [26] 90.5% | viability, T/C [31] 74.8% | viability, T/C [32] 77.8% | viability, T/C [33] 64.1% | viability, T/C [34] 46.7% | viability, T/C [10] 64.3% | viability, T/C [27] 74.3% | viability, T/C [35] 63.5% | viability, T/C [36] 71% | viability, T/C [37] 60.3% | viability, T/C [38] 37.8% | viability, T/C [15] 66.8% | viability, T/C [28] 64.5% | viability, T/C [39] 65.6% | viability, T/C [40] 60.6% | viability, T/C [41] 61% | viability, T/C [42] 32% | viability, T/C [20] 42.4% | viability, T/C [29] 46.4% | viability, T/C [43] 51.4% | viability, T/C [44] 52.5% | viability, T/C [45] 46.8% | viability, T/C [46] 46.2% | viability, T/C [25] 44.9% | viability, T/C [30] 48.7% | viability, T/C [47] 53.2% | viability, T/C [48] 56.5% | viability, T/C [49] 40.1% | viability, T/C [50] 27.7%
5530 nM: IC50 (second compound 0.316 µM)
8050 nM: IC50 (second compound 0.1 µM)
